Laboratory results published in US20240165135A1, “COMPOSITIONS AND METHODS FOR THE TREATMENT OF CANCER” (The State of Israel, Ministry of Agriculture & Rural …, priority 2021, published 2024).
Marks after values point to notes of the source that are not given here.

Assays:
Assay type in all cases: cell-based, Human
U87 GBM cells = experiment: XTT cell viability assay on U87; conditions: 48 hours; Doxorubicin up to 50 μg/mL
Protocol: Cell cultures—Human glioblastoma A172 (ATCC®CRL-1620™) was cultured in DMEM (01-055-1A, Biological Industries, Israel) and U87MG (U87; ATCC®HTB-14™) in EMEM (01-058-1A; Biological Industries, Israel). Both media were supplemented with 10% fetal bovine serum (FBS, 04-127-1A, Biological Industries, Israel), 1% Pen-Strep, 1% L-Glutamine and 0.02% plasmocin (i.e., complete medium). Cells were incubated at 37° C. in a humidified atmosphere containing 5% CO2—95% air. Serum free media (SFM) was composed of DMEM/F12 (01-170-1A; Biological Industries, Israel), including all the supplements above except for FBS. Neurosphere media for A172 was composed of SFM with 2% B-27; Neurosphere media for U87 was serum-free EMEM without B27. For Glioblastoma stem cells (GSCs) cultures all human materials were used in accordance with the policies of the Henry Ford Hospital Institutional Review Board. Generation of GSCs from fresh GBM specimens and their characterization have been recently described. […]
Cell viability assays—Cells were seeded in 96-well plates at density of 2×10^4 per well (100 μL/well) in SFM (for A172) or complete medium (for U87) and were incubated at 37° C. overnight to allow attachment. […] Absorbance was recorded by a Synergy H1 hybrid reader photometer (BioTek) at 490 nm with 650 nm of reference wavelength. […]

U87 cells = experiment: 3D models (hydrogel) of U87 cells: colonies and Alamar Blue viability; conditions: U87 from 3D structures, 48 hours; Doxorubicin 2, F4 20, F4-SM 12.5, F5 16.5, F5-SM 10 μg/ml; control 98.52
Protocol: 3D models—Hydrogels (AGFCH) included Sigma-Aldrich products and were prepared using alginate (W201502; Sigma-Aldrich, USA) 22.5 mg/mL, gelatin (G9764; Bio-Basic, USA) 45 mg/mL, fibrinogen (F38791; Sigma-Aldrich, USA) 50 mg/mL, collagen (C9791; Sigma-Aldrich, USA) 2.2 mg/mL and hyaluronic acid (O8185; Sigma-Aldrich, USA) 2 mg/mL in PBS-glycerol solvent. The gel (AGFCH) was mixed with U87 cells at a concentration of 2×10^6 cells per 400 μL gel. The solutions were mixed gently and transferred as 25 μL of gel solution to a 24-well plate. 3D models were cross-linked using CaCl2 (A610050; Bio-Basic, USA) and thrombin (SRP6557; Sigma-Aldrich, USA) for 5 minutes, following the 3D structure was washed with PBS and then immersed in 1 mL of EMEM complete medium. Cells in the 3D structures were allowed to grow for 2 days and then the indicated treatments were administered for 8 days (treatments were repeated every 2 days). Structures were stained using EasyProbe Hoechst, as described above. To assess cell viability, the 3D structure was digested using 200 μL of 0.05M sodium citrate (C3434; Sigma-Aldrich, USA) and 0.05M EDTA (03-052-1A; Biological Industries, Israel) solution for 5 minutes. […] Percentage of colony in the different treatments was calculated out of average number of colonies in the control.

A172 cells = experiment: Transwell assay, A172 cell invasion; conditions: 24 hours; F4 12 μg/mL, F5 10 μg/mL, Doxo 0.5 μg/mL
Protocol: Transwell assay—Cells were seeded in the upper chamber of a 24-well plate containing insert with an 8-μm pore size membrane (BD, Falcon Cat #353097), at a density of 5×10^4 in 250 μL complete medium and were incubated at 37° C. for 60 minutes to recover. Following, cells were treated and incubated for 24 hours followed by viability test with resazurin (AR002, R&D Systems, USA). The inserts were taken out of the medium, the inner part was wiped using a cotton swab to remove the detached cells. The inserts were transferred into a new 24-well plate, fixated using 70% ethanol for 10 minutes and dried for 50 minutes, followed by staining in 400 μL of 0.2% crystal violet, washing with PBS, and drying for 5 minutes. Cells stained underneath the membrane were counted in inverted microscope in 3-5 different fields.

`COc1cccc2c1C(=O)c1c(O)c3c(c(O)c1C2=O)C[C@@](O)(C(=O)CO)C[C@@H]3O[C@H]1C[C@H](N)[C@H](O)[C@H](C)O1` [Doxorubicin] was tested, and the “activity on the U87 cell line” value (U87 GBM cells) was “only moderately active on this cell line”, the “Mean (% of Live cells)” value (U87 cells) was 37.22 ± 3.08^c % and the “reduction of cell invasion relative to vehicle control” value (A172 cells) was 22.5%.
